This passage reports Ki results from ChEMBL document CHEMBL2157986, “The multiobjective based design, synthesis and evaluation of the arylsulfonamide/amide derivatives of aryloxyethyl- and arylthioethyl- piperidines and pyrrolidines as a novel class of potent 5-HT₇ receptor antagonists” (Eur J Med Chem, 2012).

A word on the Ki: it is the equilibrium dissociation constant of an inhibitor or competing ligand from its target.

In this test the target is 5-hydroxytryptamine receptor 7 (Homo sapiens, UniProt P34969). Briefly: Displacement of [3H]-5-CT from human 5-HT7b receptor expressed in HEK293 cells after 1 hr. The test is classed as cell-based. Background: In a radioligand displacement assay an active substance lowers the binding of a labelled ligand.
Sequence of 5-hydroxytryptamine receptor 7 (P34969 whole entry): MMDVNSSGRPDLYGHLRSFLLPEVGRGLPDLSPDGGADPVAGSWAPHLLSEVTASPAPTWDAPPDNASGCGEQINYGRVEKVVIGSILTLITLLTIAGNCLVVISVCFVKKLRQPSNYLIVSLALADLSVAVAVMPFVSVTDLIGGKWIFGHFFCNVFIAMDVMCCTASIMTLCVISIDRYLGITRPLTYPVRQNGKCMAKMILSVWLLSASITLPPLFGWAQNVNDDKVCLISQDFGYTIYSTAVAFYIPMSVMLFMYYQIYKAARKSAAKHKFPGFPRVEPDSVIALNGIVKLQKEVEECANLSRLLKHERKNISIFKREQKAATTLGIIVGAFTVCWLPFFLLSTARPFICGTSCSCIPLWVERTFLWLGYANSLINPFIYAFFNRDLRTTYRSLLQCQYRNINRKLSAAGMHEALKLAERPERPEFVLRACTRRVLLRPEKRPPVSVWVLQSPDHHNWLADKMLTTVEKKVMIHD
`O=C(NCC1CCN(CCOc2cc(Cl)ccc2Cl)CC1)c1cccc(F)c1` displayed a Ki of 415 nM.
Turning to `O=C(NC1CCN(CCOc2cccc(-c3ccccc3)c2)C1)c1cccc(F)c1` (configuration not stated), the Ki is 709 nM.
Take `Cc1ccccc1C(=O)NCC1CCN(CCOc2cccc3c2CCCC3)CC1`: the inhibitory constant (Ki) came out at 409 nM.
In turn, `O=S(=O)(NC1CCN(CCOc2ccccc2-c2ccccc2)C1)c1ccc(F)cc1` (configuration not stated) returned a Ki of 5 nM.
Compound `O=C(NC1CCN(CCSc2ccccc2-c2ccccc2)CC1)c1ccc2ccccc2n1` yielded a Ki of 865 nM.
`O=C(NC1CCN(CCSc2cccc(Cl)c2Cl)C1)c1ccc2ccccc2n1` (configuration not stated) came in with a Ki of 1110 nM.
With `O=C(NCC1CCN(CCOc2ccccc2-c2ccccc2)CC1)c1ccc2ccccc2n1`, the affinity corresponds to a Ki of 334 nM.
The compound `O=C(NC1CCN(CCOc2cccc(Cl)c2Cl)C1)c1ccc2c(c1)OCCO2` (configuration not stated) returned a Ki of 161 nM.
`Cc1ccccc1C(=O)NC1CCN(CCSc2cccc(Cl)c2Cl)CC1` registered a Ki of 815 nM.
`CCOc1ccccc1C(=O)NC1CCN(CCOc2cccc(-c3ccccc3)c2)C1` (configuration not stated) registered a Ki of 1100 nM.
Compound `Cc1ccccc1C(=O)NCC1CCN(CCOc2cccc(-c3ccccc3)c2)CC1` showed a Ki of 2670 nM.
The compound `Cc1ccccc1C(=O)NC1CCN(CCSc2cccc(Cl)c2Cl)C1` (configuration not stated) showed a Ki of 427 nM.
`CSc1ccccc1OCCN1CCC(NC(=O)c2cccs2)CC1` yielded an inhibition constant Ki of 1140 nM.
In the case of `CCOc1ccccc1C(=O)NC1CCN(CCOc2ccccc2C(C)C)C1` (configuration not stated), the Ki came to 204 nM.
`CCOc1ccccc1C(=O)NCC1CCN(CCOc2ccccc2SC)CC1` registered a Ki of 1190 nM.
In the case of `COc1ccc(OC)c(S(=O)(=O)NCC2CCN(CCOc3ccccc3C(C)C)CC2)c1`, the affinity corresponds to a Ki of 27 nM.
Regarding `CC(C)c1ccccc1OCCN1CCC(CNC(=O)c2cccs2)CC1`, the Ki is 407 nM.
Take `O=C(NC1CCN(CCOc2cccc3c2CCCC3)C1)c1cccc(F)c1` (configuration not stated): the affinity, expressed as Ki, was 2220 nM.
As for `CCOc1ccccc1C(=O)NC1CCN(CCSc2ccccc2-c2ccccc2)CC1`, the figure is 329 nM; as for `O=C(NC1CCN(CCOc2ccccc2-c2ccccc2)CC1)c1cccc(F)c1`, 391 nM; as for `CCOc1ccccc1C(=O)NC1CCN(CCOc2ccccc2-c2ccccc2)C1` (configuration not stated), 85 nM.
Compound `CCOc1ccccc1C(=O)NC1CCN(CCOc2ccccc2C(C)C)CC1` returned a Ki of 311 nM.
Compound `O=C(NC1CCN(CCOc2cc(Cl)ccc2Cl)CC1)c1ccc2ccccc2n1` gave a Ki of 873 nM.
`Cc1ccccc1C(=O)NCC1CCN(CCOc2ccccc2C(C)(C)C)CC1` registered a Ki of 1500 nM.
Regarding `CCOc1ccccc1C(=O)NC1CCN(CCOc2cccc(NC(C)=O)c2)C1` (configuration not stated), affinity was put at a Ki of 3370 nM.
As for `O=S(=O)(NC1CCN(CCSc2ccccc2-c2ccccc2)CC1)c1ccc(F)c(F)c1`, the inhibition constant (Ki) was determined as 93 nM.
`O=S(=O)(NC1CCN(CCOc2cc(Cl)ccc2Cl)C1)c1ccc(F)c(F)c1` (configuration not stated) had an inhibition constant (Ki) of 97 nM.
As for `CC(C)(C)c1ccccc1OCCN1CCC(NC(=O)c2cccc(F)c2)CC1`, the figure is 1670 nM; as for `O=C(NC1CCN(CCOc2ccccc2-c2ccccc2)CC1)c1cccs1`, 276 nM.
Turning to `CSc1ccccc1OCCN1CCC(NS(=O)(=O)c2ccc(Cl)s2)CC1`, the inhibition constant (Ki) stood at 17 nM.
`O=S(=O)(NC1CCN(CCOc2ccccc2-c2ccccc2)CC1)c1ccc(Cl)s1` returned an inhibitory constant (Ki) of 12 nM.
Turning to `Cc1ccccc1C(=O)NC1CCN(CCOc2ccccc2-c2ccccc2)C1` (configuration not stated), the Ki was determined as 59 nM.
